According to patent EP3281632A1, “ARGON FOR USE IN THE PREVENTION OF BOTH CARDIAC AND CEREBRAL INJURY INDUCED BY ISCHEMIA/REPERFUSION FOLLOWING CARDIAC ARREST” (Societa'Italiana Acetilene & Derivati S.I.A.D. S.p.A. in …, priority 2016, dated 2018):

Tests used:
[1] = system: acute myocardial infarction by LAD occlusion in the rat; test: Model of acute myocardial infarction by LAD occlusion in the rat; type: in vivo
Method: In a model of acute myocardial infarction by LAD occlusion in the rat, ventilation with argon reduced myocardial injury. More in details, the LAD occlusion was removed after 30 min; 5 min before reperfusion, animals were randomized to 1 hour ventilation with: (1) 70% argon - 30% oxygen; or (2) 70% nitrogen - 30% oxygen. […] Moreover, a reduced inflammatory response in terms of neutrophil infiltration in the argon ventilation group compared to control group was observed (72 cells/mm^2 vs. 92 cells/mm^2).

[2] = system: cardiac arrest and CPR in the rat; test: Model of cardiac arrest and CPR in the rat, argon ventilation started during CPR; type: in vivo
Method: In a model of cardiac arrest and CPR in the rat, treatment with inhaled argon was initiated early, concurrently with chest compression prior to resuscitation. After 7 min of untreated cardiac arrest, 5 min of CPR were initiated and animals were subjected to ventilation with (a) 70% argon - 30% 02 or (b) 70% N2 - 30% 02. The above ventilation strategies were continued up to 2 hrs following resuscitation.

[3] = system: left anterior descending coronary artery occlusion (LAD); conditions: rabbits; three 5-min cycles of 70% argon in oxygen prior to 30 min LAD occlusion; in comparison to control ventilation; cited from earlier work
[4] = system: rats resuscitated after cardiac arrest; conditions: post resuscitation ventilation with 70% argon, cited from earlier work
[5] = system: cardiac arrest and CPR in the pig; test: Severe model of cardiac arrest and CPR in the pig, 4 hr ventilation after CPR; type: in vivo; set-up: circulating levels of hs-cTnT (median): unit not given here
Method: In a severe model of cardiac arrest and CPR in the pig, treatment with inhaled argon allowed for concurrent cardiac and cerebral protection. After 12 min of untreated cardiac arrest and 5 min of CPR, animals were subjected to 4 hr ventilation with (a) 70% argon - 30% 02 or (b) 70% N2 - 30% 02.

[6] = system: cardiac arrest, pigs; conditions: cited from earlier work
[7] = argon during CPR and up to 2 hrs after resuscitation, compared to controls
[8] = during the 4 hr of observation, compared to controls

[Ar] [argon]
plasma level of myocardial troponin T ([1]; 30 min LAD occlusion, 1 hour ventilation 70% argon - 30% oxygen from 5 min before reperfusion, after 6 hours, control 7432 ng/l, p < 0.05): 3128 ng/L
neutrophil infiltration ([1]; LAD occlusion, argon ventilation group, control 92 cells/mm^2): 72 cells/mm^2
resuscitation rate ([2]; 7 min untreated cardiac arrest, 5 min CPR with 70% argon - 30% 02 ventilation, control 85%): 93%
post resuscitation coronary perfusion pressure [2, 7]: higher
post resuscitation mean arterial pressure [2, 7]: higher
lactate/pyruvate ratio in the hippocampus ([2]; cerebral microdialysis, compared to controls): lower
left ventricle ejection fraction ([2]; compared to the control ventilation): trend toward better
neurological recovery ([2]; compared to those ventilated with nitrogen and oxygen): significantly faster and better
troponin T release ([2]; trend, compared to the control ventilation): lower
reduction of myocardial infarct size [3]: 22%
neurological deficit score ([4]; at all time points): significant improvements
neuronal injury (histology) [4]: significant reduction
Cerebral Performance Category ([5]; 12 min untreated cardiac arrest, 5 min CPR, 4 hr ventilation with 70% argon - 30% 02, control 3.4 ± 1.6): 1.7 ± 1.3
circulating levels of NSE (median) ([5]; 4 hr ventilation 70% argon - 30% 02, control 21.2 ng/mL, p not significant): 8.5 ng/mL
circulating levels of hs-cTnT (median) ([5]; 4 hr ventilation 70% argon - 30% 02, control 8015 ng/mL, p < 0.05): 1332
myocardial infarct size ([5]; after argon treatment, compared to controls): significantly lower
heart rate [5, 8]: significantly lower
mean arterial pressure [5, 8]: higher
stroke volume [5, 8]: higher
recovery of systolic myocardial function ([5]; evaluated echocardiographically at 96 hr, compared to controls): significantly better recovery
neurological recovery ([6]; 70% argon-30% oxygen after ROSC, in contrast to nitrogen and oxygen): fast and complete
post resuscitation increase in plasmatic cardiac troponin T ([6]; 8 min untreated cardiac arrest, 5 min CPR, 70% argon-30% oxygen after ROSC): three-fold lower
brain injury (histopathology) ([6]; compared to control): lesser brain injury
respiratory exchange or arterial blood gases ([6]; ventilation with argon): did not impair
